Measurements from publication PMC3548977 (Cancer cell, 2013).

Experiments:
[1] = biological target: SMO^WT (Mus musculus, UniProt P56726); experiment: 8×-GLI-luciferase reporter in SHHN stimulated Smo−/− MEFs expressing SMO^WT; format: cell-based
[2] = system: Ptch^+/−; p53^−/− MB tumorspheres expressing endogenous SMO^WT; experiment: MB tumorsphere proliferation; format: cell-based; details: Mus musculus, 96 h, read-out: IC50 anti-proliferative activity
[3] = system: Gli1 mRNA; experiment: Gli1 mRNA transcription in MB tumorspheres; format: cell-based; details: Mus musculus, 24 h, read-out: IC50 for Gli1 mRNA transcription
[4] = system: Ptch^+/−; p53^−/− mouse MB allograft (SMO^WT); format: in vivo; details: day 9 of treatment; ATO 7.5 mg/kg IP qd, itraconazole 75 mg/kg PO bid
[5] = system: Gli1 mRNA; experiment: Gli1 mRNA expression in treated SMO^WT MB allografts; format: in vivo, mouse; details: treated 3 days, harvested 4 h after last dose
[6] = system: NVP-LDE225 resistant SMO mutants; format: cell-based, mouse; details: itraconazole 1.5 μM, mutant of Figure 7D
[7] = system: P-glycoprotein (PGP); details: ref Wang et al., 2002; cited from earlier work
[8] = biological target: murine SMO^E522K (Mus musculus, UniProt P56726, E522K); experiment: 8×-GLI-luciferase reporter in SHHN stimulated Smo−/− MEFs expressing SMO^E522K; details: GDC-0449 0.5 μM, itraconazole 1.5 μM
murine SMO^E522K, sequence (P56726 33-793 E522K): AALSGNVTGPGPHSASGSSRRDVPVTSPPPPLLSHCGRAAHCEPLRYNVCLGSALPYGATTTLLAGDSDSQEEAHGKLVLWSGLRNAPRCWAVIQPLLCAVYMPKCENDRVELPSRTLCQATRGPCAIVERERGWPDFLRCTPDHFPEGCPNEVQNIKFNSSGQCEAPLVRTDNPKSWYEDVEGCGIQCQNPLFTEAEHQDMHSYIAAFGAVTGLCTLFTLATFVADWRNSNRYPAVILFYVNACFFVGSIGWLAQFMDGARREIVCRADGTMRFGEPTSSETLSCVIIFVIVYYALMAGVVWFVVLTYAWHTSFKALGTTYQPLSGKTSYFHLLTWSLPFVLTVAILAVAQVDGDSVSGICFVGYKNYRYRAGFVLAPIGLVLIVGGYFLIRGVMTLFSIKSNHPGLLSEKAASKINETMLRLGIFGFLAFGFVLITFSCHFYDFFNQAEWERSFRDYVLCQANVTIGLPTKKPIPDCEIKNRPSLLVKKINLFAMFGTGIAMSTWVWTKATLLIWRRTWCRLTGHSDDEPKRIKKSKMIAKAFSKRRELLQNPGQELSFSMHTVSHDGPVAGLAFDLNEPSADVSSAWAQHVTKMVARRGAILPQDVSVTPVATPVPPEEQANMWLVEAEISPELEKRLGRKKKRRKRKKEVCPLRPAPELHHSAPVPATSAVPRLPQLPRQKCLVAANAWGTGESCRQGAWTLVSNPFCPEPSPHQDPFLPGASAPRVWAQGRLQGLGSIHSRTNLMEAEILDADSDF

SMO^WT, sequence (P56726 33-793): as the sequence (P56726 33-793 E522K) above, with K490E counted along it

## CCC(C)n1ncn(-c2ccc(N3CCN(c4ccc(OCC5COC(Cn6cncn6)(c6ccc(Cl)cc6Cl)O5)cc4)CC3)cc2)c1=O (stereo not drawn) [itraconazole]
[1]
  IC50: ~0.6 µM
[1]; SHHN stimulated Smo−/− MEFs expressing SMO^WT
  Inhibition of relative Hh pathway activity (8×-GLI-luciferase reporter): full antagonist
[2]
  IC50: 0.055 µM
[3]
  IC50: ~0.1 µM
[4]
  Tumor growth inhibition compared to vehicle-treated tumors: 96%
[5]
  Inhibition of tumor Gli1 mRNA expression compared to vehicle-treated tumors: 55%
[6]
  Inhibition of mutant activity: ~ 60%
[7]
  Inhibition of PGP: potent inhibitor
[8]
  Inhibition of SMO^E522K activity: almost completely inhibited
